According to patent US12606540B2, “Triazolone compound” (MEDSHINE DISCOVERY INC., priority 2020, dated 2026):
Read-outs that look alike come from different tables or passages of the source. Values belong to the compound of their own block, whether it stands above or below them.

How the values were obtained:
DHODH enzyme = DHODH enzyme (Homo sapiens, UniProt Q02127); assay: DHODH enzyme inhibitory activity in vitro (resazurin fluorescence); assay type: biochemical; conditions: 5 nM DHODH, 15 μM L-DHO, 80 μM Resazurin
Chain of DHODH enzyme (Q02127 whole entry): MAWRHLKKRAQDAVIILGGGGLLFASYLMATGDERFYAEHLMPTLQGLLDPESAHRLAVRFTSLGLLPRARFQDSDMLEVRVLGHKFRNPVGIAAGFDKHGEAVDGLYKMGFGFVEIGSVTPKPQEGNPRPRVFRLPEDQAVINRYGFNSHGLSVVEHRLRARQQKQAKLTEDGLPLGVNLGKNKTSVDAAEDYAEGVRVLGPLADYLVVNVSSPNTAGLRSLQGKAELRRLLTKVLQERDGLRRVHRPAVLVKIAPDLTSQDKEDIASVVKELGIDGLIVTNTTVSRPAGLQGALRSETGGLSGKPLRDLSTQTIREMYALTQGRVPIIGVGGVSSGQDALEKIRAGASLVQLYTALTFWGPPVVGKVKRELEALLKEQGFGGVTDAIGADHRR
Description: The DHODH inhibitory activity of the compounds was detected by the following experimental method, and the experimental results are as shown in Table 1.
DHODH uses flavin mononucleotide FMN to catalyze the oxidation of dihydrooratic acid DHO to produce oratic acid, while the re-oxidation of FMN requires the participation of coenzyme CoQ. In the experiment of detecting the DHODH enzyme activity, CoQ was replaced by Resazurin dye as the final electron acceptor in the enzyme activity reaction. Resazurin solution is blue, and the resorufin generated after reduction has red fluorescence, and the fluorescence signal can be detected under the 535 nm of excitation wavelength and the 590 nm of emission wavelength. The components of the reaction buffer used in the experiment were 100 mM Hepes pH 7.0, 150 mM NaCl, 0.3% CHAPS, 0.5 mg/mL BSA, 0.1 μM FMN and 1% DMSO. The final concentration of DHODH enzyme in the reaction system was 5 nM, and the final concentration of substrate L-DHO was 15 μM, the final concentration of indicator Resazurin was 80 μM. The components of the reaction stop buffer were 100 mM Hepes pH 7.0 and 5 mM Orotate. The specific method was as follows: 2-fold final concentration of the DHODH enzyme solution was mixed with the compound, incubated at room temperature for 20 min, 2-fold final concentration of the substrate mixture solution of L-DHO and resazurin was added and reacted, incubated at room temperature away from light for 45 min. Then the reaction was stopped by adding 2-fold final concentration of the reaction stop buffer to the reaction system, and incubated at room temperature for 10 min, the fluorescence signal of the reaction system was detected with EnVision under the condition of Ex/Em=535/590 nm.

[1] = test system: influenza virus A/Weiss/43 (H1N1); assay: Influenza virus cytopathic effect (CPE) experiment in MDCK cells; assay type: cell-based; conditions: unidentified influenza virus, H1N1, 120 h, 5 days incubation, CCK8
[2] = test system: human peripheral blood mononuclear cells; assay: Proliferation inhibition of peripheral blood mononuclear cells (flow cytometry); assay type: cell-based; conditions: PBMC, PHA-M 5 μg/mL stimulation, 48 hours
Experimental: Flow cytometry was used to detect cell proliferation of human peripheral blood mononuclear cells.
• Cell complete medium: 445 mL of RPMI1640 cell culture+50 mL of fetal bovine serum+5 mL of double antibody • Buffer 1: 9.9 mL of phosphate buffer+0.1 mL of 10% bovine serum protein • Buffer 2: 10 mL of fetal bovine serum+490 mL of phosphate buffer 3.2 Cell Thawing • 3.2.1 20 mL of cell complete medium was added to a 50 mL of centrifuge tube and pre-heated in a 37° C. water bath for 5 minutes; • 3.2.2 the cell cryotubes were removed from the liquid nitrogen storage tank and placed on dry ice for 5-10 minutes to allow the liquid nitrogen to evaporate fully; • 3.2.3 the cell cryotubes were clamped with forceps and placed in the water bath, and shaken gently to thaw the frozen cells quickly; • 3.2.4 the thawed cells were transferred to the pre-heated cell complete medium with a pipette, centrifuged at 350 g for 5 min, then the supernatant was discarded, and the cells was resuspended by adding 10 mL of phosphate buffer; • 3.2.5 counting by cell counter, and cell viability and cell count were recorded. 3.3 Cell Labeling • 3.3.1 Cell proliferation labeling solution (CellTrace™ Violet, 1:1000 dilution) was prepared • 3.3.2 the above mixture was centrifuged at 350 g for 5 minutes, and the supernatant was discarded, then the cells (20×10^6/mL) were resuspended by adding Buffer 1, and the resuspended cells were gently blown by pipette, and an equal volume of cell proliferation labeling solution (prepared in 3.3.1) was added, and gently blown well by pipette; • 3.3.3 incubating in a 5% CO2, 37° C. cell incubator for 18 minutes; • 3.3.4 the 5-fold volume of cell complete medium was added and leaved at room temperature for 5 minutes to terminate the staining reaction; • 3.3.5 the above mixture was centrifuged at 350 g for 5 minutes, and the supernatant was discarded, then the cells were resuspended by adding 10 mL of cell complete medium, counted by cell counter, and cell viability and cell count were recorded; • 3.3.6 the above mixture was centrifuged at 350 g for 5 minutes, and the supernatant was discarded, then the corresponding volume of cell complete medium was added according to the cell counting results, and the density of the resuspended cells was 2×10^6/mL and was to be used. 3.4 Cell Proliferation Stimulation • 3.4.1 50 μL/well prepared cell suspension (1×10^5 cells/well), 50 μL of 4×PHA-M (the final concentration is 5 μg/mL), 50 μL of 4×test compound, 50 μL of cell complete medium were added to the wells of 96-well cell culture plate, and the corresponding control group was set up; (total volume of the reaction system is 200 μL) • 3.4.2 the cell culture plate was placed and incubated in a 5% CO2, 37° C. cell incubator for 48 hours. 3.5 Cell Proliferation Detection • 3.5.1 the above mixture was centrifuged at 350 g for 5 minutes and the supernatant was transferred to a new cell culture plate and stored at −80° C.; • 3.5.2 200 μL of Buffer 2 was add to the wells of the culture plate, and the above mixture was centrifuged at 350 g and the supernatant was discarded; • 3.5.3 cell dead or living staining solution (7-AAD, 1:100 dilution) was prepared with Buffer 2; • 3.5.4 100 μL/well of dead or living staining solution was added, and gently blown and mixed well by pipette, and stained at room temperature for 10 min; • 3.5.5 cell proliferation was detected by flow cytometry analyzer and analyzed by Flowjo software.

MDR1 (P-glycoprotein) = assay: Permeability evaluation on MDR1-MDCK II cell line; conditions: dog, MDCK-MDR1, pH 7.4
[3] = Pharmacokinetic evaluation in mice (IV and PO); assay type: in vivo, female Balb/c mice; conditions: for MRT last: read-out: MRT0-last
Experimental: Experiment process: 0.04 mg/mL of a clarified solution of the test compound in 5% DMSO/10% Solutol solution/85% water was injected into female Balb/c mice (overnight fasting, 7-9 weeks of age) via tail vein, with dosage of 0.2 mg/kg. 0.1 mg/mL of the test compound in 5% DMSO/10% Solutol solution/0.2% Tween80/84.8% water was administered by gavage to female Balb/c mice (overnight fasting, 7-9 weeks of age), with dosage of 1 mg/kg. About 30 μL of blood was collected from the jugular vein at 0.0833, 0.25, 0.5, 1.0, 2.0, 4.0, 8.0, 10 and 24 h and from the tail vein at 0.25, 0.5, 1.0, 2.0, 4.0, 8.0 and 24 h after administration for both groups of animals, and were placed in anticoagulation tubes with EDTA-K2, and the blood was separated by centrifugation to obtain plasma. Plasma concentrations were detected by LC-MS/MS, and relevant pharmacokinetic parameters were calculated using WinNonlin™ Version 6.3 (Pharsight, Mountain View, CA) pharmacokinetic software with a non-compartmental model linear logarithmic trapezoid method.

[4] = female, Balb/c, mouse, plasma, IV 0.2 mg/kg
[5] = female, Balb/c, mouse, plasma, PO 1 mg/kg

SMILES: CCn1c(CO)nn(-c2cc(O[C@@H](C)C(F)(F)F)c(/C(F)=C/c3cnccc3Cl)cc2F)c1=O [Compound 28]
IC50 (DHODH enzyme): 2.4 nM
EC50 [1]: 43 nM
IC50 [2]: 8.4 nM
Papp A→B at 150 min, 2 μM (MDR1 (P-glycoprotein)): 8.65 ×10⁻⁶ cm/s
Papp B→A at 150 min, 2 μM (MDR1 (P-glycoprotein)): 10.7 ×10⁻⁶ cm/s
Papp at 150 min, 2 μM (MDR1 (P-glycoprotein)): > 5.5 ×10⁻⁶ cm/s
efflux ratio at 150 min, 2 μM (MDR1 (P-glycoprotein)): 1.24

SMILES: CCn1c(CO)nn(-c2cc(O[C@@H](C)C(F)(F)F)c(/C(F)=C/c3cccc(NC(=O)C4CC4)c3)cc2F)c1=O [Compound 29]
IC50 (DHODH enzyme): 4.7 nM

SMILES: CCn1c(CO)nn(-c2cc(O[C@@H](C)C(F)(F)F)c(/C=C/c3c(F)cccc3Cl)cc2F)c1=O [Compound 35]
IC50 (DHODH enzyme): 2.6 nM
EC50 [1]: 42 nM

SMILES: CCn1c(CO)nn(-c2nc(O[C@@H](C)C(F)(F)F)c(/C=C/c3c(F)cccc3Cl)cc2F)c1=O [Compound 36]
IC50 (DHODH enzyme): 1.5 nM
EC50 [1]: 10 nM
IC50 [2]: 5.9 nM

SMILES: CCn1c(CO)nn(-c2cc(O[C@@H](C)C(F)(F)F)c(/C(F)=C/c3cccnc3C(F)F)cc2F)c1=O [Compound 39]
IC50 (DHODH enzyme): 1.3 nM
EC50 [1]: 42 nM
IC50 [2]: 14.4 nM
Tlast ([3]; IV 0.2 mg/kg): 24.0 h
F ([3]; PO 1 mg/kg): 97.4%
Tlast ([3]; PO 1 mg/kg): 24.0 h
AUC(0-inf) [3, 4]: 2.24 µM·h
AUC(0-t) [3, 4]: 1.84 µM·h
clearance [3, 4]: 2.86 mL/min/kg
half-life [3, 4]: 10.4 h
MRT last [3, 4]: 7.83 h
Vd ([3]; female, Balb/c, mouse, plasma, IV 0.2 mg/kg, read-out: VdSS): 2.31 L/kg
AUC(0-inf) [3, 5]: 10.6 µM·h
AUC(0-t) [3, 5]: 8.95 µM·h
Tmax [3, 5]: 1.5 h
half-life [3, 5]: 8.86 h
MRT last [3, 5]: 8.67 h
C0 ([3]; female, Balb/c, mouse, IV 0.2 mg/kg, plasma): 419 nM
Cmax ([3]; female, Balb/c, mouse, PO 1 mg/kg, plasma): 787 nM
Papp A→B at 150 min, 2 μM (MDR1 (P-glycoprotein)): 10.1 ×10⁻⁶ cm/s
Papp B→A at 150 min, 2 μM (MDR1 (P-glycoprotein)): 13.9 ×10⁻⁶ cm/s
Papp at 150 min, 2 μM (MDR1 (P-glycoprotein)): > 5.5 ×10⁻⁶ cm/s
efflux ratio at 150 min, 2 μM (MDR1 (P-glycoprotein)): 1.37

Now from value to compound:

IC50 (DHODH enzyme): 8 nM
SMILES: CCn1c(CO)nn(-c2cc(O[C@@H](C)C(F)(F)F)c(/C(F)=C/c3ncccc3C(F)F)cc2F)c1=O [Compound 30]

IC50 (DHODH enzyme): 3.9 nM
SMILES: CCn1c(CO)nn(-c2cc(O[C@@H](C)C(F)(F)F)c(/C(F)=C/c3cnccc3C(F)F)cc2F)c1=O [Compound 32]

IC50 (DHODH enzyme): 31.8 nM
SMILES: CCn1c(CO)nn(-c2cc(O[C@@H](C)C(F)(F)F)c(/C=C/c3cccnc3Cl)cc2F)c1=O [Compound 37]

IC50 (DHODH enzyme): 26.5 nM
SMILES: CCn1c(CO)nn(-c2cc(O[C@@H](C)C(F)(F)F)c(/C=C/c3cccnc3C(F)F)cc2F)c1=O [Compound 38]

IC50 (DHODH enzyme): 7.3 nM
SMILES: CCn1c(CO)nn(-c2cc(O[C@@H](C)C(F)(F)F)c(/C(F)=C/c3cccnc3)cc2F)c1=O [Compound 40]
